Source: ChEMBL document CHEMBL2401725, “Synthesis of new chromeno-annulated cis-fused pyrano[4,3-c]isoxazole derivatives via intramolecular nitrone cycloaddition and their cytotoxicity evaluation” (Bioorg Med Chem Lett, 2013)

Key:
Assay type in all cases: functional, cell-based
A549 = assay: Cytotoxicity against human A549 cells by MTT assay
MDA-MB-231 = assay: Cytotoxicity against human MDA-MB-231 cells by MTT assay
HeLa = assay: Cytotoxicity against human HeLa cells by MTT assay
MCF7 = assay: Cytotoxicity against human MCF7 cells by MTT assay

Question: Which IC50 (A549) does the source give for Cc1oc2c3c(ccc2c(=O)c1C)OC[C@H]1[C@@H]3N(Cc2ccc(F)cc2)OC1(C)C here?
Answer: 12.8 µM

Question: What about the IC50 (MDA-MB-231) of the same compound?
Answer: 7.9 µM

Question: What about the IC50 (HeLa) of the same compound?
Answer: 9.54 µM

Question: What about the IC50 (MCF7) of the same compound?
Answer: 10.1 µM

Question: Cc1ccc(CN2OC(C)(C)[C@H]3COc4ccc5c(=O)c(C)coc5c4[C@H]32)cc1 was tested. Which IC50 (A549) did it give?
Answer: > 100 µM

Question: What about the IC50 (MDA-MB-231) of the same compound?
Answer: > 100 µM

Question: And the IC50 (HeLa)?
Answer: > 100 µM

Question: What about the IC50 (MCF7) of the same compound?
Answer: 5.3 µM

Question: With COc1ccc(CN2OC(C)(C)[C@H]3COc4ccc5c(=O)c(C)coc5c4[C@H]32)cc1 as the compound, how does the IC50 (A549) read?
Answer: 29.4 µM

Question: And the IC50 (MDA-MB-231)?
Answer: > 100 µM

Question: And the IC50 (HeLa)?
Answer: 6.54 µM

Question: What about the IC50 (MCF7) of the same compound?
Answer: 7.38 µM

Question: Which results are given for COc1cccc2c1C(=O)c1c(O)c3c(c(O)c1C2=O)C[C@@](O)(C(=O)CO)C[C@@H]3O[C@H]1C[C@H](N)[C@H](O)[C@H](C)O1 [DOXORUBICIN]?
Answer: IC50 (A549): 1.21 µM; IC50 (MDA-MB-231): 0.501 µM; IC50 (HeLa): 0.451 µM; IC50 (MCF7): 1.05 µM

Question: Which results are given for Cc1oc2c3c(ccc2c(=O)c1C)OC[C@H]1[C@@H]3N(C2CCCCC2)OC1(C)C?
Answer: IC50 (A549): 8.96 µM; IC50 (MDA-MB-231): 7.56 µM; IC50 (HeLa): > 100 µM; IC50 (MCF7): > 100 µM

Question: How did the IC50 (A549) turn out when COc1ccc(CN2OC(C)(C)[C@H]3COc4ccc5c(=O)c(C)c(C)oc5c4[C@H]32)cc1 was run?
Answer: 11.2 µM

Question: What about the IC50 (MDA-MB-231) of the same compound?
Answer: 7.81 µM

Question: What about the IC50 (HeLa) of the same compound?
Answer: > 100 µM

Question: And the IC50 (MCF7)?
Answer: 5.59 µM

Question: How did the IC50 (A549) turn out when Cc1coc2c3c(ccc2c1=O)OC[C@H]1[C@@H]3N(Cc2ccccc2)OC1(C)C was run?
Answer: > 100 µM

Question: And the IC50 (MDA-MB-231)?
Answer: > 100 µM

Question: What about the IC50 (HeLa) of the same compound?
Answer: 6.61 µM

Question: And the IC50 (MCF7)?
Answer: > 100 µM

Question: For Cc1oc2c3c(ccc2c(=O)c1C)OC[C@H]1[C@@H]3N(Cc2ccccc2)OC1(C)C, which IC50 (A549) is on record?
Answer: 17.9 µM

Question: What about the IC50 (MDA-MB-231) of the same compound?
Answer: 14.5 µM

Question: And the IC50 (HeLa)?
Answer: > 100 µM

Question: What about the IC50 (MCF7) of the same compound?
Answer: 5.78 µM

Question: With COc1ccc(CN2OC(C)(C)[C@H]3COc4ccc5c(=O)c(-c6ccccc6)c(C)oc5c4[C@H]32)cc1 as the compound, how does the IC50 (A549) read?
Answer: > 100 µM

Question: And the IC50 (MDA-MB-231)?
Answer: > 100 µM

Question: And the IC50 (HeLa)?
Answer: > 100 µM

Question: What about the IC50 (MCF7) of the same compound?
Answer: > 100 µM

Question: Which results are given for Cc1ccc(CN2OC(C)(C)[C@H]3COc4ccc5c(=O)c(C)c(C)oc5c4[C@H]32)cc1?
Answer: IC50 (A549): 8.92 µM; IC50 (MDA-MB-231): 5.64 µM; IC50 (HeLa): 18.2 µM; IC50 (MCF7): 26.5 µM

Question: How did the IC50 (A549) turn out when Cc1oc2c3c(ccc2c(=O)c1C)OC[C@H]1[C@@H]3N(Cc2ccc(C(C)C)cc2)OC1(C)C was run?
Answer: > 100 µM

Question: What about the IC50 (MDA-MB-231) of the same compound?
Answer: 6.25 µM

Question: What about the IC50 (HeLa) of the same compound?
Answer: > 100 µM

Question: What about the IC50 (MCF7) of the same compound?
Answer: 7.96 µM

Question: Which results are given for Cc1coc2c3c(ccc2c1=O)OC[C@H]1[C@@H]3N(C2CCCCC2)OC1(C)C?
Answer: IC50 (A549): 0.194 µM; IC50 (MDA-MB-231): 17.4 µM; IC50 (HeLa): 17.5 µM; IC50 (MCF7): 22.7 µM
